This note sets out measurements from patent US20110288084A1, “[4-( 1-AMINO-ETHYL) - CYCLOHEXYL ] - METHYL - AMINES AS ANTIBACTERIALS” (ASTRAZENECA AB, priority 2008, published 2011).

Sequence of Escherichia coli ParC/ParE tetramer protein (P20083 whole entry): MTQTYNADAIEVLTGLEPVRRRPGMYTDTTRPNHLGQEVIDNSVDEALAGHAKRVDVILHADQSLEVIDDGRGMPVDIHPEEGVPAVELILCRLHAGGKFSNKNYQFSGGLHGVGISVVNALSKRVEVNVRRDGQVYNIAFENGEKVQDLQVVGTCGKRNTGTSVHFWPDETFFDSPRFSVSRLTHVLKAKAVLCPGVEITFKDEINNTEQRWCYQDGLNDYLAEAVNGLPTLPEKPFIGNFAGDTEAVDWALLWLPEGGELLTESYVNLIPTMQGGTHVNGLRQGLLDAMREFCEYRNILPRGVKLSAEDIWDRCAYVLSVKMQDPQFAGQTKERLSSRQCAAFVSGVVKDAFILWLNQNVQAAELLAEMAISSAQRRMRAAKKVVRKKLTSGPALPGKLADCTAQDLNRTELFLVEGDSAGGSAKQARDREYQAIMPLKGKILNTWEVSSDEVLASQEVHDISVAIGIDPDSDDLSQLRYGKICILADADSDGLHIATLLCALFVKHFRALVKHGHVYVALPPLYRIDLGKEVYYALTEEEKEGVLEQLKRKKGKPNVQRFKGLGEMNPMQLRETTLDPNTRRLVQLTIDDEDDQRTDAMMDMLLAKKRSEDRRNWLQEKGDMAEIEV
Sequence of Escherichia coli ParC/ParE tetramer protein (P0AFI2 whole entry): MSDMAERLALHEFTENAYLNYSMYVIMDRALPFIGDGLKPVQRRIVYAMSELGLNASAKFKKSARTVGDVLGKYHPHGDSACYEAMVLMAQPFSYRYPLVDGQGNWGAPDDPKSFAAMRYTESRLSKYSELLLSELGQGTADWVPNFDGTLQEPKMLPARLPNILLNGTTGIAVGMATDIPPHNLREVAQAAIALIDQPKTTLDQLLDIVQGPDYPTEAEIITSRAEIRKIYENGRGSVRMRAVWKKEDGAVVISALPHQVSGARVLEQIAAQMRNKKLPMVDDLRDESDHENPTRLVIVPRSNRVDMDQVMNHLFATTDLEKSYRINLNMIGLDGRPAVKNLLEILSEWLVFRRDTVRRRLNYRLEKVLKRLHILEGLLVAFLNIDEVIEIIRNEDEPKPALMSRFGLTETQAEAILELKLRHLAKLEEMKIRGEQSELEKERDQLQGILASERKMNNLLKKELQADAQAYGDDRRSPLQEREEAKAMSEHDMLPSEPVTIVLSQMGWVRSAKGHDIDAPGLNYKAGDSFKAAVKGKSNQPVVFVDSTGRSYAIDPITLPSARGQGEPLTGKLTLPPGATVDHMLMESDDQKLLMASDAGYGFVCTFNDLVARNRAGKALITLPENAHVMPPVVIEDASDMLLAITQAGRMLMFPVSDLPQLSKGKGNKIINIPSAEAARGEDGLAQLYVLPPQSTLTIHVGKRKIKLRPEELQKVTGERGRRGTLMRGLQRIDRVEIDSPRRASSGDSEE

The target in the assay is Escherichia coli ParC/ParE tetramer protein (Escherichia coli, UniProt P0AFI2+P20083). Briefly: E. coli ParC/ParE ATPase inhibition assay (malachite green phosphate detection). Format: biochemical. The conditions noted are these: ATPase activity of ParE subunit of reconstituted ParC/ParE tetramer; 0.16 mM ATP; 24 hours at room temperature. From the text:
The compounds of Formula (I) are of interest due to their antibacterial effects. The ability of the invention compounds disclosed herein to achieve an antibacterial effect may be evaluated with regard to their ability to inhibit the ParC enzyme of Escherichia coli using an assay based on the following protocol.
The assay utilizes the ATPase activity of the ParE subunit of reconstituted Escherichia coli ParC/ParE tetramer protein. Inhibition of ATPase activity may be monitored by reduced production of inorganic phosphate, a product of the ATPase reaction. Inorganic phosphate may be quantified using the ammonium molybdate/malachite green-based detection system. For determination of IC50 values, assays may be performed 384-well microtiter plates. Each well preferably contains a dilution range of the compound dissolved in DMSO. In addition, each well preferably contains: 20 mM Tris pH 8.0, 50 mM ammonium acetate, 0.16 mM ATP, 0.005% Brij-35, 8.0 mM magnesium chloride, 0.5 mM EDTA, 2.5% v/v glycerol, 5 mM dithiothreitol, 0.005 mg/mL sheared salmon sperm DNA, 0.5 nM E. coli ParC protein, 0.5 nM E. coli ParE protein. Final volume of assays is preferably 30 μL. Reactions may be incubated 24 hours at room temperature and then quenched with the addition of 45 μL malachite green reagent (Lanzetta, P. A., L. J. Alvarez, P. S. Reinach, and O. A. Candia (1979) Anal. Biochem. 100: 95-97) via a bulk reagent dispenser. Plates may be incubated 3-5 minutes at room temperature, and then absorbance at 650 nm may be measured using a Spectramax 384 plate reader.
When tested in an assay based on the one described above, the inhibitory activity of the following Examples was measured at the indicated IC50.
For orientation: IC50 means the concentration that inhibits the measured activity by half. Read a low IC50 as greater potency in that assay. In turn, `N#Cc1ccc2ccc(=O)n(CC(N)[C@H]3CC[C@H](NCc4ccc5c(n4)NC(=O)CO5)CC3)c2c1` (single isomer, unassigned; enantiomer b) [Example 4(b), Trans-1-(2-amino-2-(4-((3-oxo-3,4-dihydro-2H-pyrido[3,2-b][1,4]oxazin-6-yl)methylamino)cyclohexyl)ethyl)-2-oxo-1,2-dihydroquinoline-7-carbonitrile, enantiomer B] returned an IC50 of 4 nM.

Compound `COc1cnc2ccc(=O)n(CC(N)C3CCC(NCc4ncc5c(n4)NC(=O)CO5)CC3)c2c1` (racemic) [Example 8, Trans-2-((4-(1-amino-2-(7-methoxy-2-oxo-1,5-naphthyridin-1(2H)-yl)ethyl)cyclohexylamino)methyl)-6H-pyrimido[5,4-b][1,4]oxazin-7(8H)-one] gave an IC50 of 17 nM.

In turn, `N#Cc1ccc2ccc(=O)n(CC(N)C3CCC(NCc4ccc5c(n4)NC(=O)CO5)CC3)c2c1` (racemic) [Example 4, Trans-1-(2-amino-2-(4-((3-oxo-3,4-dihydro-2H-pyrido[3,2-b][1,4]oxazin-6-yl)methylamino)cyclohexyl)ethyl)-2-oxo-1,2-dihydroquinoline-7-carbonitrile] came in with an IC50 of 9 nM.

`Cc1cc(=O)n(CC(N)C2CCC(NCc3ccc4c(n3)NC(=O)CO4)CC2)c2cc(F)ccc12` (single isomer, unassigned; enantiomer a) [Example 10, Trans-6-((4-(1-amino-2-(7-fluoro-4-methyl-2-oxoquinolin-1(2H)-yl)ethyl)cyclohexylamino)methyl)-2H-pyrido[3,2-b][1,4]oxazin-3(4H)-one, enantiomer A] returned an IC50 of 9 nM.

As to `COc1ccc2ncc(=O)n(CC(N)[C@H]3CC[C@H](NCc4ccc5c(n4)NC(=O)CO5)CC3)c2c1` (single isomer, unassigned; enantiomer a) [Example 2(a), Trans-6-((4-(1-amino-2-(7-methoxy-2-oxoquinoxalin-1(2H)-yl)ethyl)cyclohexylamino)methyl)-2H-pyrido[3,2-b][1,4]oxazin-3(4H)-one, enantiomer A], the IC50 is 16 nM.

The compound `COc1ccc2ncc(=O)n(CC(N)[C@H]3CC[C@H](NCc4ncc5c(n4)NC(=O)CO5)CC3)c2c1` (single isomer, unassigned; enantiomer b) [Example 3(b), Trans-2-((4-(1-amino-2-(7-methoxy-2-oxoquinoxalin-1(2H)-yl)ethyl)cyclohexylamino)methyl)-6H-pyrimido[5,4-b][1,4]oxazin-7(8H)-one, enantiomer B] returned an IC50 of 3 nM.

Compound `COc1cnc2ccc(=O)n(CC(N)[C@H]3CC[C@H](NCc4ccc5c(n4)NC(=O)CO5)CC3)c2c1` (single isomer, unassigned; enantiomer b) [Example 1(b), Trans-6-((4-(1-amino-2-(7-methoxy-2-oxo-1,5-naphthyridin-1(2H)-yl)ethyl)cyclohexylamino)methyl)-2H-pyrido[3,2-b][1,4]oxazin-3(4H)-one, enantiomer B] yielded an IC50 of 33 nM.

Compound `NC(Cn1c(=O)cnc2ccc(F)cc21)[C@H]1CC[C@H](NCc2ccc3c(n2)NC(=O)CO3)CC1` (single isomer, unassigned) [Example 5, Trans-6-((4-(1-amino-2-(7-fluoro-2-oxoquinoxalin-1(2H)-yl)ethyl)cyclohexylamino)methyl-2H-pyrido[3,2-b][1,4]oxazin-3(4H)-one, (+) enantiomer] had an IC50 of 24 nM.

`COc1cnc2ccc(=O)n(CC(N)C3CCC(NCc4ccc5c(n4)NC(=O)CO5)CC3)c2c1` (racemic) [Example 1, Trans-6-((4-(1-amino-2-(7-methoxy-2-oxo-1,5-naphthyridin-1(2H)-yl)ethyl)cyclohexylamino)methyl)-2H-pyrido[3,2-b][1,4]oxazin-3(4H)-one] gave an IC50 of 20 nM.

As to `N#Cc1ccc2ccc(=O)n(CC(N)[C@H]3CC[C@H](NCc4ccc5c(n4)NC(=O)CS5)CC3)c2c1` (single isomer, unassigned; enantiomer b) [Example 7(b), Trans-1-(2-amino-2-(4-((3-oxo-3,4-dihydro-2H-pyrido[3,2-b][1,4]thiazin-6-yl)methylamino)cyclohexyl)ethyl)-2-oxo-1,2-dihydroquinoline-7-carbonitrile, enantiomer B], the IC50 was found to be 2 nM.

For the compound `N#Cc1ccc2ccc(=O)n(CC(N)[C@H]3CC[C@H](NCc4ccc5c(n4)NC(=O)CO5)CC3)c2c1` (single isomer, unassigned; enantiomer a) [Example 4(a), Trans-1-(2-amino-2-(4-((3-oxo-3,4-dihydro-2H-pyrido[3,2-b][1,4]oxazin-6-yl)methylamino)cyclohexyl)ethyl)-2-oxo-1,2-dihydroquinoline-7-carbonitrile, enantiomer A], half-maximal inhibition (IC50) was put at 32 nM.

`COc1ccc2ncc(=O)n(CC(N)[C@H]3CC[C@H](NCc4ccc5c(n4)NC(=O)CO5)CC3)c2c1` (single isomer, unassigned; enantiomer b) [Example 2(b), Trans-6-((4-(1-amino-2-(7-methoxy-2-oxoquinoxalin-1(2H)-yl)ethyl)cyclohexylamino)methyl)-2H-pyrido[3,2-b][1,4]oxazin-3(4H)-one, enantiomer B] registered a 50% inhibitory concentration (IC50) of 4 nM.

As for `N#Cc1ccc2ccc(=O)n(CC(N)C3CCC(NCc4ccc5c(n4)NC(=O)CS5)CC3)c2c1` (racemic) [Example 7, Trans-1-(2-amino-2-(4-((3-oxo-3,4-dihydro-2H-pyrido[3,2-b][1,4]thiazin-6-yl)methylamino)cyclohexyl)ethyl)-2-oxo-1,2-dihydroquinoline-7-carbonitrile], the IC50 is 12 nM.

`NC(Cn1c(=O)cnc2ccc(F)cc21)C1CCC(NCc2ncc3c(n2)NC(=O)CO3)CC1` (single isomer, unassigned) [Example 6, Trans-2-((4-(1-amino-2-(7-fluoro-2-oxoquinoxalin-1(2H)-yl)ethyl)cyclohexylamino)methyl-6H-pyrimido[5,4-b][1,4]oxazin-7(8H)-one, (+) enantiomer]: it took 15 nM to reach half-maximal inhibition (IC50).

On to `NC(Cn1c(=O)ccc2ncc(Sc3ccccc3)cc21)C1CCC(NCc2ccc3c(n2)NC(=O)CO3)CC1` (single isomer, unassigned; enantiomer a) [Example 9, Trans-6-((4-(1-amino-2-(2-oxo-7-(phenylthio)-1,5-naphthyridin-1(2H)-yl)ethyl)cyclohexylamino)methyl)-2H-pyrido[3,2-b][1,4]oxazin-3(4H)-one, enantiomer A], for which the IC50 was 6 nM.

Turning to `COc1ccc2ncc(=O)n(CC(N)[C@H]3CC[C@H](NCc4ncc5c(n4)NC(=O)CO5)CC3)c2c1` (single isomer, unassigned; enantiomer a) [Example 3(a), Trans-2-((4-(1-amino-2-(7-methoxy-2-oxoquinoxalin-1(2H)-yl)ethyl)cyclohexylamino)methyl)-6H-pyrimido[5,4-b][1,4]oxazin-7(8H)-one, enantiomer A], 16 nM corresponded to half-maximal inhibition (IC50).

`COc1cnc2ccc(=O)n(CC(N)[C@H]3CC[C@H](NCc4ccc5c(n4)NC(=O)CO5)CC3)c2c1` (single isomer, unassigned; enantiomer a) [Example 1(a), Trans-6-((4-(1-amino-2-(7-methoxy-2-oxo-1,5-naphthyridin-1(2H)-yl)ethyl)cyclohexylamino)methyl)-2H-pyrido[3,2-b][1,4]oxazin-3(4H)-one, enantiomer A] gave an IC50 of 2 nM.
